Holding throughout (type): biochemical
Settings in all cases: Table 2 selectivity profile

The target of assay [1] is T1, recombinant human MMP-1 (Homo sapiens, UniProt P03956).
T1 sequence (P03956 100-469): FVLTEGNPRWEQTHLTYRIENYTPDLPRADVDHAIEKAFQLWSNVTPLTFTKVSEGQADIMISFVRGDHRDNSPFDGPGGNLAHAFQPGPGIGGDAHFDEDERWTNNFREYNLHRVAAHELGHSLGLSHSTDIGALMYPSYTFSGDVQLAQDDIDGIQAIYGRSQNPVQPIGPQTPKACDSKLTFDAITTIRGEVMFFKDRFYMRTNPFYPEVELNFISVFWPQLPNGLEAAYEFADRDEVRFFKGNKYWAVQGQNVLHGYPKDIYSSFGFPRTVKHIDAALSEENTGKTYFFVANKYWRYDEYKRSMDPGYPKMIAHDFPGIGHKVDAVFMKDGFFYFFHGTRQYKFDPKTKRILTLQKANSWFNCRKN
The experiment in a line: MMP selectivity assay, MMP-1. How it is done:
(§1) The inhibitory effect of compounds on the rate of cleaving fluorogenic MMP substrate (Enzo, BML-P128) by recombinant human MMP-12 catalytic domain (Enzo, BML-SE138) was carried out by methods known in the art. Briefly, to each well of a 96-well black opaque plate, all the reagents were sequentially added by pipetting, and the final reaction contained 4 nM of recombinant human MMP-12 catalytic domain, 4 μM of fluorogenic MMP substrate, and various concentrations (0.15 nM to 10,000 nM) of tested compound dilutions in HEPES buffer (pH 7.5) containing 10 mM of CaCl2), 0.01% Brij® 35 (polyoxyethylene (23) lauryl ether), and 0.1 mg/ml of BSA.
(§2) The enzyme and compounds were pre-incubated on a shaker to mix in wells. After an hour of mixing, fluorogenic substrate was added to each well. Reaction without enzyme was used as a blank control in the plate. The plate was then fed into a plate reader to measure fluorescence intensity at Excitation/Emission wavelengths of 340 nm/440 nm every 10 mins for at least 1 hour at 37° C. The IC50 of each compound in MMP-12 inhibition was determined by using a readout obtained at time point 30 minutes.
(§3) The MMP selectivity assay was performed by using other recombinant human MMPs, including MMP-1, MMP-2, MMP-3, MMP-7, MMP-8, MMP-9, MMP-10, MMP-13, and MMP-14. The IC50 of the compounds for the other recombinant human MMPs was determined as described above in Example 1, and are shown in Table 2.

The target of assay [2] is recombinant human MMP-3 (Homo sapiens, UniProt P08254). The experiment in a line: MMP selectivity assay, MMP-3. How it is done:
as §1, §2, §3

In assay [3] the target is T2, recombinant human MMP-7 (Homo sapiens, UniProt P09237).
T2 sequence (P09237 95-267): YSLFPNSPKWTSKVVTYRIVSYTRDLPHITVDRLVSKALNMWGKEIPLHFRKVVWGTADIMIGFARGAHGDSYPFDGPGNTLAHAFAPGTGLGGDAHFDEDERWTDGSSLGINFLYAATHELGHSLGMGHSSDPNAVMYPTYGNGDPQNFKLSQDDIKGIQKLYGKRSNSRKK
The experiment in a line: MMP selectivity assay, MMP-7. How it is done:
as §1, §2, §3

Assay [4] concerns the target recombinant human MMP-8 (Homo sapiens, UniProt P22894). The experiment in a line: MMP selectivity assay, MMP-8. How it is done: as §1, §2, §3
Assay [5] has as its target recombinant human MMP-9 (Homo sapiens, UniProt P14780). The experiment in a line: MMP selectivity assay, MMP-9. How it is done:
as §1, §2, §3

The target in assay [6] is recombinant human MMP-14 (Homo sapiens, UniProt P50281). The experiment in a line: MMP selectivity assay, MMP-14. How it is done: as §1, §2, §3

Chain of recombinant human MMP-9 (P14780 94-707): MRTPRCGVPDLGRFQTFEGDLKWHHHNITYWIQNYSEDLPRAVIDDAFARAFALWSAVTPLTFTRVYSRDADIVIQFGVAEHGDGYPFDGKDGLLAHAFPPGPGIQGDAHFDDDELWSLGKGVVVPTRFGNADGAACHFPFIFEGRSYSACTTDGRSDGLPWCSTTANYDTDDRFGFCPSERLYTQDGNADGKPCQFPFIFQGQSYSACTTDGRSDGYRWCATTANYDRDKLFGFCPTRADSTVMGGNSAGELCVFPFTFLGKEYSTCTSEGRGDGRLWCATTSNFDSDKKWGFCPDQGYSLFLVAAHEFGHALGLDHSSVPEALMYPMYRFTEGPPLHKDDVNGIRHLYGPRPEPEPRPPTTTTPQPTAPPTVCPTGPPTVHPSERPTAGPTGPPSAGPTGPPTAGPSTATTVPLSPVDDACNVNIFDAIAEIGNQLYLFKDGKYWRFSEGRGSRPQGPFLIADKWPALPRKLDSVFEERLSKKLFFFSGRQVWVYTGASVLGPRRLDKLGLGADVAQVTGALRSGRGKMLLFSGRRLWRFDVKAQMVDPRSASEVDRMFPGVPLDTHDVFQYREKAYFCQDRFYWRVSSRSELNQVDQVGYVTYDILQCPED
Chain of recombinant human MMP-8 (P22894 101-467): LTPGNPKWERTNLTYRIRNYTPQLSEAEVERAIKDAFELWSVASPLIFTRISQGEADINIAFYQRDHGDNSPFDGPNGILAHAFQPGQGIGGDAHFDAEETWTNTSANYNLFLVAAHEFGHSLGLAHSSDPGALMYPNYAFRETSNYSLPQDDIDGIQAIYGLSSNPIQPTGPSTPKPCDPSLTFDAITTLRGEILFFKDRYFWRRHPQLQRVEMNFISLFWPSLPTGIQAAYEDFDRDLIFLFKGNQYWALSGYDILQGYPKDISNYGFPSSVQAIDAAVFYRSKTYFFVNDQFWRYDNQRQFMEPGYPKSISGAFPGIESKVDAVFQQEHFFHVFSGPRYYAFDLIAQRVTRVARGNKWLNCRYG
Chain of recombinant human MMP-3 (P08254 100-477): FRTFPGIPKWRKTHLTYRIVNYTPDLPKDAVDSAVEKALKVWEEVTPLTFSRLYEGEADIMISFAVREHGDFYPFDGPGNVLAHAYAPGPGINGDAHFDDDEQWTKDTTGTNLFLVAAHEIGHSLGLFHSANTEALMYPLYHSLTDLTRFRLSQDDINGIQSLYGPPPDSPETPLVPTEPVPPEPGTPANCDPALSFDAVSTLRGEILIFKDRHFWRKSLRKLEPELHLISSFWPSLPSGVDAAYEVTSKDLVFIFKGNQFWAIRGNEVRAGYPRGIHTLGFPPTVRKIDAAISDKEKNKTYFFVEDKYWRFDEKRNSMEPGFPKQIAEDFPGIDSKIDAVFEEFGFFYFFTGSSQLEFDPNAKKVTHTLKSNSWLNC

In general, IC50 refers to the concentration needed to halve the response being measured. `Cc1cc(COc2ccc(Sc3ccncc3C3NC(=O)NC3=O)cc2)ccn1` (stereo not drawn) [PC-16]: the IC50 in assay [1] is > 10 µM; in assay [2], 1 to 10 µM; in assay [3], > 10 µM; in assay [4] it was 1 to 10 µM; in assay [5], 1 to 10 µM; in assay [6], 1 to 10 µM.

For the origin of these results see patent publication US20190352288A1, “MATRIX METALLOPROTEINASE (MMP) INHIBITORS AND METHODS OF USE THEREOF” (Foresee Pharmaceuticals Co., Ltd., priority 2018, published 2019).
